According to patent US20230332103A1, “Methods and Compositions for Generating Human Forebrain Neural Progenitor Cells and for Maturation Thereof to Parvalbumin+ Interneurons” (Trailhead Biosystems Inc., priority 2021, published 2023):
Where “and” joins values, the source holds several entries; their conditions need not be identical. Equal values may be shown once. Entries after “also recorded” stand apart in the source; their conditions may differ. Where no end group is shown, it is not given here.

B1: GDNF: Glial cell line-derived neurotrophic factor, activates the GDNF pathway (protein, UniProt P39905 78-211, looked up)
Glial cell line-derived …: SPDKQMAVLPRRERNRQAAAANPENSRGKGRRGQRGKNRGCVLTAIHLNVTDLGLGYETKEELIFRYCSGSCDAAETTYDKILKNLSRNRRLVSDKVGQACCRPIAFDDDLSFLDDNLVYHILRKHSAKRCGCI

Key:
Type in all cases: cell-based, human
[1] = test system: stage 2 neural stem cells (cells treated with stage 1 and stage 2 media); experiment: HD-DoE experiment for stage 3 recipe, optimized for ASCL1; details: for factor contribution on expression of ASCL1: positive, model optimized for maximum expression of ASCL1 at 1700, FIG. 9
Protocol: To further guide the cells to medial ganglionic eminence progenitor fate, an additional HD-DoE experiment was performed for 3 days on cells that were treated with stage 1 and stage 2 media for total of 6 days prior to start of the experiment. This experiment included 13 effectors, LDN193189, A8301, GNF5837, AZD3147, GSI-XX, Takinib, PD0325901, PD173074, BLU9931, IGF-1, MHY1485, Purmorphamine and Prostratin. In this model, we focused on maximum expression of genes expressed in neuronal progenitor cells in medial ganglionic eminence (MGE) region including ASCL1, LHX6 and DLX1 (Silberberg et al. (2016) Neuron 92:59-74). When the model was optimized for maximum expression of ASCL1 at 1700, A8301, GSI-XX, Purmorphamine and Takinib, which is an inhibitor of TAK1 pathway, had the highest factor contributions, 18.1, 14.1, 12.7 and 10.1 respectively. […]

[2] = test system: stage 2 neural stem cells; experiment: factor criticality analysis (dynamic profile analysis) of stage 3 recipe; design: unit not given here; details: other five factors present; for expression level of DLX1 when the effector is removed: 220 with all six factors; for expression level of LHX6 when the effector is removed: 240 with all six factors; for expression level of ASCL1 when the effector is removed: 1650 with all six factors
Protocol: To assess the impact of the elimination of each validated factor, dynamic profile analysis was used and compared the expression level of genes of interest in absence of each finalized factor while others are present. […] In the stage 3 recipe, each of the six finalized factors were removed while the other five factors remained present and the expression levels of ASCL1, DLX1 and LHX6 were assessed compared to the presence of all six factors. […] As expected, in the absence of IGF-1, the value of DLX1 increases to 410, however, ASCL1 and LHX6 decreased to 1390 and 220, respectively.

[3] = test system: forebrain-committed neural stem cells (stage 1 neural stem cells); experiment: HD-DoE 12-factor experiment for stage 2 recipe, optimized for NKX2-1; details: model maximized for NKX2-1 / dynamic profile, FIG. 7 and 8
Protocol: To further guide the differentiation of forebrain-committed neural stem cells to ventral forebrain neural stem cells at stage 2, a HD-DoE experiment was performed for 3 days after termination of stage 1 treatment. At this time, we focused on maximum expression of NKX2-1 that is expressed in ventral forebrain region and minimum expression of PAX6 that is expressed in dorsal forebrain region. This 12-factor experiment included LDN193189, BMP7, PD0325901, MK2206, A8301, XAV939, CHIR99021, Purmorphamine, SANT-1, AGN193109, TTNPB and GSI-XX.

[4] = test system: stage 4 neural stem cells; experiment: HD-DoE 8-factor experiment for stage 5 recipe (Prostratin, Rosiglitazone, GSI-XX, Heparin, GW0742, N2, THI0019, GDNF), optimized for PVALB; details: for impact on expression of PVALB: dynamic profile analysis, FIG. 24; for factor contribution on expression of PVALB: positive, model optimized for maximum expression of PVALB, FIG. 23
Protocol: To investigate effect of other factors on differentiation of forebrain-committed neural stem cells to PVALB interneuron cells, an additional HD-DoE experiment was performed for 3 days on cells that were treated with stage 1 to stage 4 media for total of 12 days prior to start of the experiment. This experiment included eight effectors, Prostratin, Rosiglitazone, GSI-XX, Heparin, GW0742, N2, THI0019, and GDNF. In this model, we focused on maximum expression of PVALB gene expressed in PVALB (+) interneurons (Nahar et al. (2021) Front. Psych. 12:679960). When model was optimized for maximum expression of PVALB, Prostratin, GW0742, N2, and GDNF had the highest factor contributions, 13.56, 19.499, 15.9 and 8.2 respectively (FIG. 23).
So, they were excluded in the recipe.

MGE progenitor cells [5] = experiment: HD-DoE 12-factor experiment for stage 4 recipe, optimized for MEF2C; details: for impact on expression of MEF2C: dynamic profile analysis, FIG. 20
From the text: These effectors are small molecules or proteins. They are commonly used during stepwise differentiation of stem cells to specific fates. The choice of the effectors was based on current literature on neural induction in forebrain region of developing brain and differentiation of stem cells to neural progenitors.
To evaluate the effectors, experiments with at least 8 factors were designed that can assess the response of cells to 48 or more different combinations of effectors in a range of concentrations. To analyze the models, we focused on expression of genes involved in development and patterning of the forebrain interneurons maturation including LHX6 (Yuan et al. (2018) Elife, 7:e37382), DLX5 (Wang et al. (2010) J. Neuroscience 30:5334-5345), ASCL1 (Shi et al. (2016) J. Biol. Chem. 291:13560-13570). At later stages we focused on interneuron maturation genes including Parvalbumin and absence of somatostatin (Horn and Nicoll (2018) Proc. Natl. Acad. Sci. 115:589-594). The impacts of each effector on gene expression level are defined by a parameter called factor contribution that is calculated for each effector during the modeling.
To identify the recipe of stage 4 of differentiation, 48 different combinations of effectors generated using Design-of-Experiments compression through D-optimality were robotically prepared. The effector combinations were prepared in a basal media and were subsequently added to the cells, which were then allowed to differentiate. Three days later RNA extraction was performed, and gene expression was obtained using quantitative PCR analysis. The data was normalized and modeled using partial least squares regression analysis to the effector design, resulting in the generation of gene-specific models, which after model tuning for maximal predictive power, provided explanation of the effectors ability to control the expression of individual genes, combinatorically, and individually. Solutions within the tested space could then be explored to address desirability. […] Valproic Acid can inhibit histone deaceylases and increase γ-aminobutyric acid (GABA). […] GDNF is the […] Glial cell line-derived neurotrophic factor and can activate the GDNF pathway.
To find the set of factors that have the potential to optimize MEF2C in this experiment, a new assessment was done through dynamic profile analysis with focus on maximal expression of MEF2C (FIG. 20).

MGE progenitor cells [6] = experiment: factor criticality analysis of stage 4 recipe; details: FIG. 27
Protocol: (§1) To assess the impact of elimination of each validated factor, we again used dynamic profile analysis and compared the expression level of genes of interest in the absence of each finalized factor while others are present.
In the stage 4 recipe, each of five finalized factors were removed while the other four factors were present and expression levels of forebrain genes were assessed compared to the presence of all 5 factors. MEF2C was reported to determine the PVALB-precursors cell fate (Mayer et al. (2018) Nature 555:457-462). We optimize MEF2C expression at this stage. […] (FIG. 27).

[7] = test system: stage 4 neural stem cells; experiment: factor criticality analysis of stage 5 recipe
Protocol: as §1
In the stage 5 recipe, each of seven finalized factors were removed while other factors were kept present and expression levels of PVALB and SST were assessed compared to the presence of all seven factors. […] 2-phospho-L-ascorbic acid, BDNF, IGF-1 were included in the stage 5 recipe (FIG. 28). […] Others were also found to increase the expression of somatostatin that was SST interneuron marker. So, they are excluded from the recipe and N2 was included in the stage 5 recipe (FIG. 29). […] Sodium pyruvate was included in the stage 5 recipe (FIG. 30).

[8] = test system: cells after termination of stage 4 treatment; experiment: HD-DoE 8-factor experiment for stage 5 recipe (JQ1, Indolactam-V, Oleic acid, BDNF, IGF-1, 2-phospho-L-Ascorbic acid, Albumax, MK2206), optimized for PVALB
From the text: To further guide the differentiation of forebrain-committed neural stem cells to PVALB interneuron cells at stage 5, we performed a HD-DoE experiment for 3 days after termination of stage 4 treatment. At this time, we focused on maximum expression of PVALB that was expressed in Parvalbumin (+) interneurons and minimum expression of Somatostatin that is another type of interneurons. This 8-factor experiment included JQ1, Indolactam-V, Oleic acid, BDNF, IGF-1, 2-phospho-L-Ascorbic acid, Albumax, MK2206. […] Using dynamic profile analysis, we modified the model to achieve the maximum expression level of PVALB simultaneously and therefore 2-phospho-L-ascorbic acid, BDNF, IGF1 were included while MK2206, Albumax, and JQ1 are excluded (FIG. 22). Considering the model at different optimization settings for maximum differentiation of cells toward ventral forebrain, the recipe for stage 5 of differentiation included BDNF, IGF-1, 2-phospho-L-ascorbic acid from this HD-Doe experiment.

[9] = dynamic profile analysis, FIG. 10
[10] = positive impact, model optimized for maximal expression of MEF2C at 453, FIG. 19

Row | Molecule | factor contribution on expression of ASCL1 [1] | impact on expression of PVALB [4] | impact on expression of MEF2C (MGE progenitor cells [5]) | factor contribution on expression of PVALB [4] | effect on PVALB expression (MGE progenitor cells [6]) | factor contribution on expression of MEF2C (MGE progenitor cells [5]; [10]) | effect on somatostatin expression (MGE progenitor cells [6]) | other results
1 | C[C@H](NC(=O)Cc1cc(F)cc(F)c1)C(=O)N[C@@H]1C(=O)N(C)c2ccccc2-c2ccccc21 [GSI-XX] | 14.1 and 14 | negative impact | negative effect | – | – | – | – | impact on expression of ASCL1 [1, 9]: Positive impact; impact on expression of LHX6 [1, 9]: Positive impact; expression level of DLX1 when the effector is removed [2]: 50; expression level of LHX6 when the effector is removed [2]: 140; expression level of ASCL1 when the effector is removed [2]: 1200; impact on expression of NKX2-1 [3]: increase its expression level; factor contribution on expression of MEF2C (MGE progenitor cells [5]; significant negative effect, model optimized for maximal expression of MEF2C): 11.6
2 | Cc1cc(SCc2sc(-c3ccc(C(F)(F)F)c(F)c3)nc2C)ccc1OCC(=O)O [GW0742] | – | – | – | 19.499 | – | – | – | –
3 | O=[N+]([O-])c1ccc(Nc2nc(N3CCOCC3)nc(N3CCOCC3)n2)cc1 [MHY1458] | below 2 | – | – | – | increase PVALB expression | 0.04 | – | –
4 | CC(=O)O[C@@]12C[C@@H](C)[C@@]3(O)[C@@H](C=C(CO)C[C@]4(O)C(=O)C(C)=C[C@@H]34)[C@@H]1C2(C)C [Prostratin] | – | – | – | 13.56 | – | – | – | –
5 | CCCC[C@@H](COC(=O)N(Cc1cccs1)Cc1cccs1)NC(=O)N[C@@H](CC(=O)OC)c1ccc2c(c1)OCO2 [THI0019] | – | negative impact | – | – | – | – | – | –
6 | CCCC(CCC)C(=O)O [Valproic Acid, Valproic acid] | – | – | positive impact | – | contribute to PVALB expression | 12 | minimal increase | –
7 | Heparin | – | negative impact | – | – | – | – | – | –
8 | IGF-1: insulin-like growth factor 1, growth factor, IGF1 pathway agonist | 7 | – | negative impact | – | – | – | – | impact on expression of ASCL1 [1, 9]: positive effect; impact on expression of DLX1 [1, 9]: negative impact; impact on expression of LHX6 [1, 9]: positive effect; expression level of DLX1 when the effector is removed [2]: 410; expression level of LHX6 when the effector is removed [2]: 220; expression level of ASCL1 when the effector is removed [2]: 1390; effect on expression of somatostatin ([7]; FIG. 28): did not change; contribution to expression of PVALB (Parvalbumin) ([7]; FIG. 28-30): positive contribution; factor contribution on expression of PVALB ([8]; important input for maximum expression of PVALB, FIG. 21): 12.8; impact on expression of PVALB ([8]; model maximized for PVALB / dynamic profile, FIG. 21 and 22): increase its expression level; also recorded: positive impact
9 | Substance P: 11 amino acid neuropeptide, member of the tachykinin neuropeptide family (RPKPQQFFGLM; ends and bridges not checked; UniProt P20366 58-68, looked up) | – | – | positive impact | – | – | 9 | decrease | effect on MEF2C expression (MGE progenitor cells [6]): increase
10 | B1 | – | – | positive impact | 8.2 | contribute to PVALB expression | 5 | minimal increase | –
